Patent publication US20240245682A1, “ALPHA-V-BETA-8 INTEGRIN INHIBITORS AND USES THEREOF” (Pliant Therapeutics, Inc., priority 2022, published 2024)
pIC50: −log10 of the molar value.

Assays:
Experiment in all cases: AlphaScreen proximity-based integrin binding assay with TGF-b1 LAP
Details in all cases: values given as ranges
human integrin αVβ6 = human integrin αVβ6 (Homo sapiens, UniProt P06756+P18564)
Method in brief: (§1)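 Purified human integrin incubated with compound, TGF-b1 LAP, biotinylated anti-LAP antibody and acceptor beads for 2 h, then streptavidin donor beads 30 min, room temperature, in 50 mM Tris-HCl pH 7.5, 0.1% BSA, 1 mM CaCl2/MgCl2. AlphaScreen signal (680 nm excitation, 520-620 nm emission); IC50 by four-parameter fit.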

human integrin αVβ8 = human integrin αVβ8 (Homo sapiens, UniProt P06756+P26012)
Chain of human integrin αVβ8 (P06756 31-992 limits assumed): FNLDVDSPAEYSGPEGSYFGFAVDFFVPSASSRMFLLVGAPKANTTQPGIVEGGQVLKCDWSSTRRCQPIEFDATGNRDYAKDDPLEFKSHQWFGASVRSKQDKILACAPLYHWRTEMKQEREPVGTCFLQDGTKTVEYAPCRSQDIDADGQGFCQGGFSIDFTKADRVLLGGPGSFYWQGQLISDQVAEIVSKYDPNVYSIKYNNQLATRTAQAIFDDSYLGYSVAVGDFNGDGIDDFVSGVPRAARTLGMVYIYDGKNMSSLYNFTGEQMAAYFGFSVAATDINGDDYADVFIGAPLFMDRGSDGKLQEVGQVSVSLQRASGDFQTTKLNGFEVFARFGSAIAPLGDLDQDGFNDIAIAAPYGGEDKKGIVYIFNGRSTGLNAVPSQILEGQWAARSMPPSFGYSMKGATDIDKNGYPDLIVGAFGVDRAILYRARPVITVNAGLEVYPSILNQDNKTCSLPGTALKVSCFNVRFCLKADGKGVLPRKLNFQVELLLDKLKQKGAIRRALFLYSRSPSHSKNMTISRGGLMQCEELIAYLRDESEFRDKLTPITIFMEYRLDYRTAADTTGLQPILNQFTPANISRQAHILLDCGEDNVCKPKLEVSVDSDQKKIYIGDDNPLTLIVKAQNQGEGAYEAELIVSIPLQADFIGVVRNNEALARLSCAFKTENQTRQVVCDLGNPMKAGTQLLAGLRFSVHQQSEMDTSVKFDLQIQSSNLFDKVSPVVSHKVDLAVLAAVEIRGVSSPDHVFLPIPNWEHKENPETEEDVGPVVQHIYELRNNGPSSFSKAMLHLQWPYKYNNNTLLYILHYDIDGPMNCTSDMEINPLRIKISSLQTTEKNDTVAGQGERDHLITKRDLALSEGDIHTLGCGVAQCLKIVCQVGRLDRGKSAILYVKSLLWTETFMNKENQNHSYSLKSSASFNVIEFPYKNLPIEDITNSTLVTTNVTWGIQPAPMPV
Chain of human integrin αVβ8 (P26012 43-684 limits assumed): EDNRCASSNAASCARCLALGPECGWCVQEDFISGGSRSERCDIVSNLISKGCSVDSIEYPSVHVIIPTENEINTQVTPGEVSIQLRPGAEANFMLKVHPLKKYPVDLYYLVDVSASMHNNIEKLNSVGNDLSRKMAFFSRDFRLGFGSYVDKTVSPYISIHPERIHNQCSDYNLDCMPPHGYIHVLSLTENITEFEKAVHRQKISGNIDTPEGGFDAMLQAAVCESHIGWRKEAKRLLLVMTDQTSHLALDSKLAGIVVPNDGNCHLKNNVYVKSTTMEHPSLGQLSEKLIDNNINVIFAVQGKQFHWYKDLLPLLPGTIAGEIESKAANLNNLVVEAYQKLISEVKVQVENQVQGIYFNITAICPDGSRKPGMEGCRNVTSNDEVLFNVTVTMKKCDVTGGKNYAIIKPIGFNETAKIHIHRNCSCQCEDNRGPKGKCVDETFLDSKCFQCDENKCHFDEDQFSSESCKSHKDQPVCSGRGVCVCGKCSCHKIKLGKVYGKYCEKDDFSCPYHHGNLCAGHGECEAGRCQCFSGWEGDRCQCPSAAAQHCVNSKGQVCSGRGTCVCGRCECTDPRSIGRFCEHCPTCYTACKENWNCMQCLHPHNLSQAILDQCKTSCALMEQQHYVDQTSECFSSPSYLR
Method in brief: as §1

human integrin αVβ1 = human integrin αVβ1 (Homo sapiens, UniProt P05556+P06756)
Chain of human integrin αVβ1 (P06756 31-992 limits assumed): as the sequence (P06756 31-992 limits assumed) above
Chain of human integrin αVβ1 (P05556 21-728 limits assumed): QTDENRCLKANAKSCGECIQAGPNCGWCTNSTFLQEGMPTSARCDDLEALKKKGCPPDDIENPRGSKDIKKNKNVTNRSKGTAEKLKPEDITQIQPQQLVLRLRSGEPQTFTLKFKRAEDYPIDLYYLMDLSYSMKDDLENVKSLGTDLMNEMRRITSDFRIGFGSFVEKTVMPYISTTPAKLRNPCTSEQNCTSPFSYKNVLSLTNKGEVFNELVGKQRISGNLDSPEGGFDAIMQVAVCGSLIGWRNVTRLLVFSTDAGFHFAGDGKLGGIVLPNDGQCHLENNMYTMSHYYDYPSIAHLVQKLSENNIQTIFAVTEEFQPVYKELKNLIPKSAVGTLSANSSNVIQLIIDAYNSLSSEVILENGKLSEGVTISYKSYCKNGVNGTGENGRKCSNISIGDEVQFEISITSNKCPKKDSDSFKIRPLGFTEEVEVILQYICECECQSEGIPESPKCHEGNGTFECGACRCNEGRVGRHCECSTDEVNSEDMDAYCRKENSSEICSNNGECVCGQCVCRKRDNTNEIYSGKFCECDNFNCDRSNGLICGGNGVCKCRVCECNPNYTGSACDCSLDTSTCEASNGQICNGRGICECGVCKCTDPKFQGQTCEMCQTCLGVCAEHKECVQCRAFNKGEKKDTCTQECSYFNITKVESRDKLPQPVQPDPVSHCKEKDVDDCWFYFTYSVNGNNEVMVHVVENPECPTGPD
Method in brief: as §1

Chain of human integrin αVβ6 (P06756 31-992 limits assumed): as the sequence (P06756 31-992 limits assumed) above
Chain of human integrin αVβ6 (P18564 22-707 limits assumed): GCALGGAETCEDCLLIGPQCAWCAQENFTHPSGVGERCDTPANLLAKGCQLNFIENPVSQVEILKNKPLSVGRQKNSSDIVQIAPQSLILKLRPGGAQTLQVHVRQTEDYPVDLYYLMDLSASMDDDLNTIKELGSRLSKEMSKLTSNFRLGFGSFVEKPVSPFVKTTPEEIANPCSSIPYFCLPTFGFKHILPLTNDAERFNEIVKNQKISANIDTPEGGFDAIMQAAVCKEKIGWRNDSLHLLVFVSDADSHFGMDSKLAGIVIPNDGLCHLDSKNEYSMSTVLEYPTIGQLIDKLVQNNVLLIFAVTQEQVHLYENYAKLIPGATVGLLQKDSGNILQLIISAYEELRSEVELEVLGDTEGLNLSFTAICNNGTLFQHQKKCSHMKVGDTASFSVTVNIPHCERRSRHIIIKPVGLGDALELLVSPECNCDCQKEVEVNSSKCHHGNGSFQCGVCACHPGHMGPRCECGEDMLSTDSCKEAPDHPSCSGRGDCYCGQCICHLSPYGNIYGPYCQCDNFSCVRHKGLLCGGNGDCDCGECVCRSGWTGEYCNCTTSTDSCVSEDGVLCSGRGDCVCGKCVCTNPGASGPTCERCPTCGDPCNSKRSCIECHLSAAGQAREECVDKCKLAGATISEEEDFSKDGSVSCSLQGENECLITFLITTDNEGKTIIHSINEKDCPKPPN

| Compound | pIC50 (human integrin αVβ6) | pIC50 (human integrin αVβ8) | pIC50 (human integrin αVβ1) |
| --- | --- | --- | --- |
| Cn1cc(C(F)(F)F)c(C2(C(=O)N[C@@H](CCOCCCCc3ccc4c(n3)NCCC4)C(=O)O)CC2)n1 [Compound 77, N-(1-(1-methyl-4-(trifluoromethyl)-1H-pyrazol-3-yl)cyclopropane-1-carbonyl)-O-(4-(5,6,7,8-tetrahydro-1,8-naphthyridin-2-yl)butyl)-L-homoserine] | ≤ 6.30 | > 7.30 | > 7.30 |
| COc1ccc(Cl)c(C2(C(=O)N[C@@H](CCOCCCCc3ccc4c(n3)NCCC4)C(=O)O)CC2)n1 [Compound 26, N-(1-(3-chloro-6-methoxypyridin-2-yl)cyclopropane-1-carbonyl)-O-(4-(5,6,7,8-tetrahydro-1,8-naphthyridin-2-yl)butyl)-L-homoserine] | 6.30 to 6.60 | > 7.30 | > 7.30 |
| Cc1ncnc(Cl)c1C1(C(=O)NC(CCOCCCCc2ccc3c(n2)NCCC3)C(=O)O)CC1 (stereo not drawn) [Compound 101, N-(1-(4-chloro-6-methylpyrimidin-5-yl)cyclopropane-1-carbonyl)-O-(4-(5,6,7,8-tetrahydro-1,8-naphthyridin-2-yl)butyl)homoserine] | < 6.30 | > 7.30 | > 7.30 |
| O=C(O)[C@H](CCOCCCCc1ccc2c(n1)NCCC2)NC(=O)C1(c2ncccc2Cl)CC1 [Compound 15, N-(1-(3-chloropyridin-2-yl)cyclopropane-1-carbonyl)-O-(4-(5,6,7,8-tetrahydro-1,8-naphthyridin-2-yl)butyl)-L-homoserine] | ≤ 6.30 | > 7.30 | > 7.30 |
| O=C(O)[C@H](CCOCCCCc1ccc2c(n1)NCCC2)NC(=O)C1(n2c(Br)cccc2=O)CC1 [Compound 94, N-(1-(6-bromo-2-oxopyridin-1(2H)-yl)cyclopropane-1-carbonyl)-O-(4-(5,6,7,8-tetrahydro-1,8-naphthyridin-2-yl)butyl)-L-homoserine] | < 6.30 | > 7.30 | > 7.30 |
| O=C(O)[C@H](CCOCCCCc1ccc2c(n1)NCCC2)NC(=O)C1(n2ccnc2C(F)(F)F)CC1 [Compound 70, O-(4-(5,6,7,8-tetrahydro-1,8-naphthyridin-2-yl)butyl)-N-(1-(2-(trifluoromethyl)-1H-imidazol-1-yl)cyclopropane-1-carbonyl)-L-homoserine] | ≤ 6.30 | > 7.30 | > 7.30 |
| Cc1ncc(F)cc1C1(C(=O)N[C@@H](CCOCCCCc2ccc3c(n2)NCCC3)C(=O)O)CC1 [Compound 28, N-(1-(5-fluoro-2-methylpyridin-3-yl)cyclopropane-1-carbonyl)-O-(4-(5,6,7,8-tetrahydro-1,8-naphthyridin-2-yl)butyl)-L-homoserine] | ≤ 6.30 | > 7.30 | > 7.30 |
| COCc1cccnc1C1(C(=O)N[C@@H](CCOCCCCc2ccc3c(n2)NCCC3)C(=O)O)CC1 [Compound 53, N-(1-(3-(methoxymethyl)pyridin-2-yl)cyclopropane-1-carbonyl)-O-(4-(5,6,7,8-tetrahydro-1,8-naphthyridin-2-yl)butyl)-L-homoserine] | ≤ 6.30 | 6.82 to 7.30 | 6.82 to 7.30 |
| O=C(O)[C@H](CCOCCCCc1ccc2c(n1)NCCC2)NC(=O)C1(c2c(Cl)cn[nH]c2=O)CC1 [Compound 76, N-(1-(5-chloro-3-oxo-2,3-dihydropyridazin-4-yl)cyclopropane-1-carbonyl)-O-(4-(5,6,7,8-tetrahydro-1,8-naphthyridin-2-yl)butyl)-L-homoserine] | ≤ 6.30 | > 7.30 | > 7.30 |
| Cc1ccccc1C1(C(=O)N[C@@H](CCOCCCCc2ccc3c(n2)NCCC3)C(=O)O)CC1 [Compound 17, O-(4-(5,6,7,8-tetrahydro-1,8-naphthyridin-2-yl)butyl)-N-(1-(o-tolyl)cyclopropane-1-carbonyl)-L-homoserine] | ≤ 6.30 | > 7.30 | 6.82 to 7.30 |
| O=C(O)[C@H](CCOCCCCc1ccc2c(n1)NCCC2)NC(=O)C1(c2ccc(F)cc2)CCOCC1 [Compound 85, N-(4-(4-fluorophenyl)tetrahydro-2H-pyran-4-carbonyl)-O-(4-(5,6,7,8-tetrahydro-1,8-naphthyridin-2-yl)butyl)-L-homoserine] | < 6.30 | 6.82 to 7.30 | > 7.30 |
| CC(C)(C(=O)N[C@@H](CCOCCCCc1ccc2c(n1)NCCC2)C(=O)O)c1ccccc1Cl [Compound 8, N-(2-(2-chlorophenyl)-2-methylpropanoyl)-O-(4-(5,6,7,8-tetrahydro-1,8-naphthyridin-2-yl)butyl)-L-homoserine] | ≤ 6.30 | 6.82 to 7.30 | > 7.30 |
| O=C(O)[C@H](CCOCCCCc1ccc2c(n1)NCCC2)NC(=O)C1(c2cncnc2C(F)F)CC1 [Compound 59, N-(1-(4-(difluoromethyl)pyrimidin-5-yl)cyclopropane-1-carbonyl)-O-(4-(5,6,7,8-tetrahydro-1,8-naphthyridin-2-yl)butyl)-L-homoserine] | ≤ 6.30 | > 7.30 | > 7.30 |
| CC(C)(C(=O)N[C@@H](CCOCCCCc1ccc2c(n1)NCCC2)C(=O)O)c1c(F)cccc1OC(F)F [Compound 5, N-(2-(2-(difluoromethoxy)-6-fluorophenyl)-2-methylpropanoyl)-O-(4-(5,6,7,8-tetrahydro-1,8-naphthyridin-2-yl)butyl)-L-homoserine] | ≤ 6.30 | 6.82 to 7.30 | > 7.30 |
| O=C(O)[C@H](CCOCCCCc1ccc2c(n1)NCCC2)NC(=O)C1(c2ncccc2OC(F)F)CC1 [Compound 38, N-(1-(3-(difluoromethoxy)pyridin-2-yl)cyclopropane-1-carbonyl)-O-(4-(5,6,7,8-tetrahydro-1,8-naphthyridin-2-yl)butyl)-L-homoserine] | ≤ 6.30 | > 7.30 | > 7.30 |
| Cc1ncccc1C1(C(=O)N[C@@H](CCOCCCCc2ccc3c(n2)NCCC3)C(=O)O)CC1 [Compound 13, N-(1-(2-methylpyridin-3-yl)cyclopropane-1-carbonyl)-O-(4-(5,6,7,8-tetrahydro-1,8-naphthyridin-2-yl)butyl)-L-homoserine] | ≤ 6.30 | > 7.30 | > 7.30 |
| COc1cccc(C#N)c1C1(C(=O)N[C@@H](CCOCCCCc2ccc3c(n2)NCCC3)C(=O)O)CC1 [Compound 56, N-(1-(2-cyano-6-methoxyphenyl)cyclopropane-1-carbonyl)-O-(4-(5,6,7,8-tetrahydro-1,8-naphthyridin-2-yl)butyl)-L-homoserine] | ≤ 6.30 | > 7.30 | 6.82 to 7.30 |
| O=C(O)[C@H](CCOCCCCc1ccc2c(n1)NCCC2)NC(=O)C1(c2cccc(Cl)c2)CCOCC1 [Compound 89, N-(4-(3-chlorophenyl)tetrahydro-2H-pyran-4-carbonyl)-O-(4-(5,6,7,8-tetrahydro-1,8-naphthyridin-2-yl)butyl)-L-homoserine] | < 6.30 | > 7.30 | > 7.30 |
| COc1ncnc(C)c1C1(C(=O)N[C@@H](CCOCCCCc2ccc3c(n2)NCCC3)C(=O)O)CC1 [Compound 61, N-(1-(4-methoxy-6-methylpyrimidin-5-yl)cyclopropane-1-carbonyl)-O-(4-(5,6,7,8-tetrahydro-1,8-naphthyridin-2-yl)butyl)-L-homoserine] | ≤ 6.30 | > 7.30 | > 7.30 |
